Results on 9 molecules are retold here after patent publication EP4667451A1, “PESTICIDALLY-ACTIVE 2,2-DIHALOCYCLOPROPYL COMPOUNDS” (Syngenta Crop Protection AG, priority 2024, dated 2025).

Format in all cases: in vivo
The test system of data set [1] is Myzus persicae (Green peach aphid). Kind of data set: Myzus persicae (Green peach aphid) systemic activity, pea seedling roots in test solution. The note with it: 144 h, test rate of 24 ppm, assessed 6 days after placing seedlings into test solutions. As to the method:
Myzus persicae (Green peach aphid) Systemic activity
Roots of pea seedlings infested with an aphid population of mixed ages were placed directly into aqueous test solutions prepared from 10,000 DMSO stock solutions. The samples were assessed for mortality 6 days after placing seedlings into test solutions.

Data set [2] has as its system Aphis craccivora (Black bean aphid). Description: Aphis craccivora (Black bean aphid), mixed population, systemic/feeding, pea seedlings in test solutions. The note with it: 120 h, application rate of 24 ppm, assessed 5 days later, read-out: growth inhibition. How it is done:
Aphis craccivora (Black bean aphid), mixed population, systemic/feeding Pea seedlings infested with mixed aged aphid population, were put into glass vials with test solutions. 5 days later, samples were assessed for mortality.

The subject of data set [3] is Myzus persicae (Green peach aphid). Kind of data set: Myzus persicae (Green peach aphid) intrinsic activity, sucrose solution feeding through Parafilm. The conditions noted are these: test rate of 12 ppm, assessed 5 days after infestation; for mortality at 12 ppm: Myzus persicae, 120 h. An excerpt: Myzus persicae (Green peach aphid) Intrinsic activity
Test compounds prepared from 10,000 ppm DMSO stock solutions were applied by pipette into 24-well microtiter plates and mixed with sucrose solution. The plates were closed with a stretched Parafilm. A plastic stencil with 24 holes was placed onto the plate and infested pea seedlings were placed directly on the Parafilm. The infested plate was closed with a gel blotting paper and another plastic stencil and then turned upside down. The samples were assessed for mortality 5 days after infestation.

Data set [4] shares this test system. Description: Myzus persicae (Green peach aphid) feeding/contact activity, sprayed eggplant leaf discs. The conditions noted are these: application rate of 200 ppm, assessed 6 days after infestation. As to the method: Myzus persicae (Green peach aphid) Feeding/Contact activity Eggplant leaf discs were placed onto agar in a 24-well microtiter plate and sprayed with aqueous test solutions prepared from 10,000 ppm DMSO stock solutions. After drying, the leaf discs were infested with an aphid population of mixed ages. The samples were assessed for mortality 6 days after infestation.

In turn, `O=C(NCCCCCCC1CC1(F)Br)c1ccccc1` (stereo not shown) [Compound A4, N-[6-(2-bromo-2-fluoro-cyclopropyl)hexyl]benzamide] came in with a mortality at 24 ppm in data set [1] of at least 80%.
Turning to `OCCCCCCC1CC1(F)Br` (stereo not shown) [Compound A7, 6-(2-bromo-2-fluoro-cyclopropyl)hexan-1-ol], the inhibition at 24 ppm in data set [2] was at least 80%.
Regarding `O=C(OCCCCCCC1CC1(F)Br)c1ccccc1` (stereo not shown) [Compound A8, 6-(2-bromo-2-fluoro-cyclopropyl)hexyl benzoate], the inhibition at 24 ppm in data set [2] was at least 80%.
In data set [3], `OCCCCC1CC1(F)Br` (stereo not shown) [Compound A9, 4-(2-bromo-2-fluoro-cyclopropyl)butan-1-ol] showed a mortality at 12 ppm of at least 80%. The inhibition at 24 ppm in data set [2] is at least 80%.
As for `O=C(NCCCCC1CC1(F)Br)C1CC1` (stereo not shown) [Compound A24, N-[4-(2-bromo-2-fluoro-cyclopropyl)butyl]cyclopropanecarboxamide], the inhibition at 200 ppm in data set [4] (Myzus persicae, foliar, 144 h, read-out: growth inhibition) is at least 80%.
In turn, `O=C(NCCCCC1CC1(F)Br)N1CCCCC1` (stereo not shown) [Compound A43, N-[4-(2-bromo-2-fluoro-cyclopropyl)butyl]piperidine-1-carboxamide] displayed a mortality at 12 ppm in data set [3] of at least 80%.
As for “N-[4-(2-bromo-2-fluoro-cyclopropyl)butyl]-2,3-dihydro-1,4-benzodioxine-5-sulfonamide [Compound A27]”, in data set [4], the growth inhibition entry is “at least 80%”.
In the case of “N-[4-(2-bromo-2-fluoro-cyclopropyl)butyl]-3,5-dimethyl-isoxazole-4-sulfonamide [Compound A11]”, the mortality entry in data set [3] is “at least 80%”.
With “N-[4-(2-bromo-2-fluoro-cyclopropyl)butyl]-6-methyl-pyridine-3-sulfonamide [Compound A10]”, the growth inhibition entry in data set [4] is given as “at least 80%”.

As usually defined, the mortality is the percentage killed. High values mean fewer survivors, low ones more survivors. For orientation: inhibition means how much of the control response was suppressed.
